From patent US7511041B2, “Fused azole-pyrimidine derivatives” (Bayer Pharmaceuticals Corporation, priority 2002, dated 2009)
pIC50: −log10 of the molar value. Like-named read-outs stand apart in the source and are kept apart here.

Tests used:
[1] = target: T1, Recombinant human PI3Kγ (full length human PI3K p110γ) (Homo sapiens, UniProt P48736); assay: Kinase assay of PI3Kγ (solid-phase lipid kinase assay); format: biochemical
T1 construct: full length human PI3K p110γ fused with a His6-tag at the C-terminus; His6 (C); purchased ALEXIS BIOCHEMICALS #201-055-C010; host or cells: S. frugiperda 9 insect cells
T1 sequence (P48736 whole entry, the tested form may be a part): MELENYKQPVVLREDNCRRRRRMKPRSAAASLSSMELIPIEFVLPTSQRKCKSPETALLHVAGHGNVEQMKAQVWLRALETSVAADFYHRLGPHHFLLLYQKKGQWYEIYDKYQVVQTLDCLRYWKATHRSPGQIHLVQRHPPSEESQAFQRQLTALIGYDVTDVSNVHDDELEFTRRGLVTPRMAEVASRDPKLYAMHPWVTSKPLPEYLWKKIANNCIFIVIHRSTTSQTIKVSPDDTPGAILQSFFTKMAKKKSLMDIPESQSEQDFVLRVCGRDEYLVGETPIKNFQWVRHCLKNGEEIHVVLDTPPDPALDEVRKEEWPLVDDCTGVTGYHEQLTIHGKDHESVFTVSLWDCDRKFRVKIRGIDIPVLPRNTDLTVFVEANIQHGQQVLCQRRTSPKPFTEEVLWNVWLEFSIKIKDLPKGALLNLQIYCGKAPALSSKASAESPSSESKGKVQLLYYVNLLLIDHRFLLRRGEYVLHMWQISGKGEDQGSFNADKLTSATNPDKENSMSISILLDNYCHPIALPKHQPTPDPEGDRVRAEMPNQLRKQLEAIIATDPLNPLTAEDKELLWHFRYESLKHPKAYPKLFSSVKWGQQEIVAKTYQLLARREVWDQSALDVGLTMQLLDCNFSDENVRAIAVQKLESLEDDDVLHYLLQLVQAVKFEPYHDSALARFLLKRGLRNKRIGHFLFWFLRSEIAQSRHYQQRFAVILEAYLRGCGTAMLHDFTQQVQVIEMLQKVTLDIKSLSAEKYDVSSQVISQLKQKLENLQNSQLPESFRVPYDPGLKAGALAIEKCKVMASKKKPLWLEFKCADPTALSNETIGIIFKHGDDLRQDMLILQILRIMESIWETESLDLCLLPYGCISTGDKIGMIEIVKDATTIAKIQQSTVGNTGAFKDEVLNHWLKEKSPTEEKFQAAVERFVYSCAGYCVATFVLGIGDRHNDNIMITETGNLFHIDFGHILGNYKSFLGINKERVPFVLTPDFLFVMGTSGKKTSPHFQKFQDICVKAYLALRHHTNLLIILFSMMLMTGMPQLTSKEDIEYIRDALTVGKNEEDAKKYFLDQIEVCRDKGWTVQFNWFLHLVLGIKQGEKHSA

[2] = Table 1, isozyme not given, read-out: in vitro
[3] = in vitro PI3K-γ inhibitory activity, class symbols A-D, read-out: in vitro PI3K-gamma
[4] = in vitro PI3K-γ inhibitory activity, class symbols, read-out: in vitro PI3K-gamma
[5] = activity class of IC50, read-out: In vitro PI3K-γ inhibitory activity

Structure (SMILES) | melting point | pIC50 [1, 2] | pIC50 [1, 3] | pIC50 [1, 4] | pIC50 [1, 5]
Cl.O=C(O)CCCc1ccc2c(n1)N=C(/C=C(\O)c1cccnc1)N1CCN=C21 [Example 1-202] | 285 °C (dec.) | 6.30 to 7.00 | – | – | –
O/C(=C\C1=Nc2cc(Cl)ccc2C2=NCCN12)c1ccccc1 [Example 1-190] | 186 to 188 °C | 5.70 to 6.30 | – | – | –
CS(=O)(=O)c1ccc(C(=O)NC2=Nc3ccccc3C3=NCCN23)cc1 [Example 2-245] | 278 °C (dec.) | – | < 5.70 | – | –
CC(C)(C)OC(=O)N1CCCC(C(=O)NC2=Nc3ccccc3C3=NCCN23)C1 (stereo not drawn) [Example 2-338] | 147 to 148 °C | – | < 5.70 | – | –
O/C(=C\C1=Nc2cc(N3CCOCC3)ccc2C2=NCCN12)c1ccc2[nH]cnc2c1 [Example 1-100] | 232 °C | > 7.00 | – | – | –
O=C(NC1=Nc2ccccc2C2=NCCN12)c1ccccc1 [Example 2-214] | 201 to 203 °C (dec.) | – | 5.70 to 6.30 | – | –
O/C(=C\C1=Nc2cnccc2C2=NCCN12)c1cccnc1 [Example 1-164] | 230 °C | 6.30 to 7.00 | – | – | –
CN1CCN(c2ccc3c(c2)N=C(/C=C(\O)c2ccc4[nH]cnc4c2)N2CCN=C32)CC1 [Example 1-107] | 207 °C | > 7.00 | – | – | –
Cc1cccc(C(=O)NC2=Nc3ccccc3C3=NCCN23)c1.O=C(O)C(F)(F)F [Example 2-217] | 239 to 241 °C | – | 6.30 to 7.00 | – | –
Cl.O=C(NC1=Nc2ccccc2C2=NCCN12)c1ccc(Cl)nc1 [Example 2-155] | 324 °C (dec.) | – | – | 6.30 to 7.00 | –
O=C(NC1=Nc2cc(Cl)ccc2C2=NCCN12)c1cccnc1 [Example 2-353] | 254 °C | – | 6.30 to 7.00 | – | –
O=C(NC1=Nc2ccccc2C2=NCCN12)c1c[nH]cn1 [Example 2-193] | 265 °C (dec.) | – | – | 6.30 to 7.00 | –
N#Cc1ccc(C(=O)NC2=Nc3ccccc3C3=NCCN23)cc1.O=C(O)C(F)(F)F [Example 2-256] | 248 to 250 °C | – | < 5.70 | – | –
COc1ccc2c(c1)C1=NCCN1C(NC(=O)c1ccc3[nH]cnc3c1)=N2.Cl [Example 2-94] | 288 °C | – | – | > 7.00 | –
O/C(=C\C1=Nc2ccccc2C2=NCCN12)c1ccccn1 [Example 1-173] | 195 °C | 5.70 to 6.30 | – | – | –
COc1cc2c(c(OC)c1C)N=C(NC(=O)c1cccnc1C)N1CCN=C21 [Example 2-77] | 210 °C (dec.) | – | – | > 7.00 | –
Cl.O=C(NC1=Nc2cc(Br)ccc2C2=NCCN12)c1ccc2[nH]cnc2c1 [Example 2-45] | 278 °C | – | – | > 7.00 | –
Cl.O=C(NC1=Nc2cc(C(F)(F)F)ccc2C2=NCCN12)c1cccs1 [Example 2-350] | 292 °C | – | 5.70 to 6.30 | – | –
Nc1cccc(C(=O)NC2=Nc3ccccc3C3=NCCN23)c1.O=C(O)C(F)(F)F [Example 2-162] | 191 °C (dec.) | – | – | 6.30 to 7.00 | –
O/C(=C\C1=Nc2ccc(O)cc2C2=NCCN12)c1cccnc1 [Example 1-124] | 302 to 303 °C | 6.30 to 7.00 | – | – | –
O=C(Nc1nc2ccccc2c2nccn12)c1cccnc1 [Example 4-1, N-Imidazo[1,2-c]quinazolin-5-ylnicotinamide] | 223 to 224 °C (dec.) | – | – | – | 5.70 to 6.30

Structure (SMILES) | melting point | pIC50 [1, 2] | pIC50 [1, 3] | pIC50 [1, 4] | pIC50 [1, 5]
O/C(=C\C1=Nc2cc(Cl)ccc2C2=NCCN12)c1cccnc1 [Example 1-116] | 226 °C | 6.30 to 7.00 | – | – | –
COc1cncc(C(=O)NC2=Nc3ccccc3C3=NCCN23)c1 [Example 2-140] | 219 °C (dec.) | – | – | 6.30 to 7.00 | –
Cn1c(C(=O)NC2=Nc3ccccc3C3=NCCN23)cc2ccccc21 [Example 2-314] | 259 to 260 °C | – | < 5.70 | – | –
O=C(NCCc1ccc2c(n1)N=C(/C=C(\O)c1cccnc1)N1CCN=C21)N1CCOCC1 [Example 1-204] | 262 °C | 5.70 to 6.30 | – | – | –
Cl.O=C(NC1=Nc2ccccc2C2=NCCN12)c1cc2cccnc2nc1C(F)(F)F [Example 2-176] | 248 to 249 °C | – | – | 6.30 to 7.00 | –
Cc1ccc(C(=O)NC2=Nc3ccccc3C3=NCCN23)c(Cl)n1 [Example 2-290] | 213 to 214 °C | – | 6.30 to 7.00 | – | –
O/C(=C\C1=Nc2ccccc2C2=NCCN12)c1cccnc1 [Example 1-134] | 202 °C | 6.30 to 7.00 | – | – | –
COc1cccc2c1N=C(NC(=O)c1cccnc1)N1CCN=C21 [Example 2-114] | 110 °C | – | – | > 7.00 | –
CC(C)(C)Oc1ccc(C(=O)NC2=Nc3ccccc3C3=NCCN23)cc1 [Example 2-236] | > 410 °C | – | < 5.70 | – | –
CSc1ccc(C(=O)NC2=Nc3ccccc3C3=NCCN23)cc1 [Example 2-243] | 169 to 170 °C | – | < 5.70 | – | –
Cc1cc(Br)c2c(c1)C1=NCCN1C(NC(=O)c1ccc3[nH]cnc3c1)=N2 [Example 2-75] | > 290 °C | – | – | 6.30 to 7.00 | –
O=C(NC1=Nc2cc(OCCOCCO)ccc2C2=NCCN12)c1cccnc1 [Example 2-201] | 181 °C | – | – | 6.30 to 7.00 | –
Cl.O=C(NC1=Nc2ccccc2C2=NCCN12)c1nccs1 [Example 2-188] | 306 °C (dec.) | – | – | 6.30 to 7.00 | –
CC(=O)Nc1cccc(C(=O)NC2=Nc3ccccc3C3=NCCN23)c1.O=C(O)C(F)(F)F [Example 2-262] | 253 °C (dec.) | – | < 5.70 | – | –
O/C(=C\c1nc2ccccc2c2nccn12)c1cccs1 [Example 3-1, (Z)-2-Imidazo[1,2-c]quinazolin-5-yl-1-(2-thienyl)ethenol] | 128 °C | – | – | – | < 5.70
COc1cccc(C(=O)NC2=Nc3ccccc3C3=NCCN23)c1.O=C(O)C(F)(F)F [Example 2-234] | 209 to 211 °C | – | 5.70 to 6.30 | – | –
Cc1nc(NC(=O)OC(C)(C)C)sc1/C(O)=C/C1=Nc2ccccc2C2=NCCN12 [Example 1-179] | > 300 °C | < 5.70 | – | – | –
Cc1nc2cc(C(=O)NC3=Nc4ccccc4C4=NCCN34)ccc2[nH]1.Cl [Example 2-308] | 344 °C (dec.) | – | 6.30 to 7.00 | – | –
COc1c(OCC2CCCCO2)ccc2c1N=C(/C=C(\O)c1cccnc1)N1CCN=C21 (stereo not drawn) [Example 1-194] | 233 to 234 °C | > 7.00 | – | – | –
COc1cc2c(cc1OC)C1=NCCN1C(NC(=O)c1cncc(C)c1)=N2.Cl [Example 2-59] | 257 °C (dec.) | – | – | 6.30 to 7.00 | –
COc1cc(OC)c2c(c1)C1=NCCN1C(/C=C(\O)c1cccnc1)=N2 [Example 1-42] | 218 °C | > 7.00 | – | – | –

Structure (SMILES) | melting point | pIC50 [1, 2] | pIC50 [1, 3] | pIC50 [1, 4] | pIC50 [1, 5]
CC(=O)Nc1ccc(/C(O)=C/C2=Nc3ccccc3C3=NCCN23)cc1 [Example 1-133] | > 300 °C | 6.30 to 7.00 | – | – | –
Cn1cc(C(=O)NC2=Nc3ccccc3C3=NCCN23)c2ccccc21 [Example 2-315] | 288 to 289 °C | – | < 5.70 | – | –
O=C(NC1=Nc2ccccc2C2=NCCN12)c1cnccn1 [Example 2-292] | 267 to 268 °C | – | 5.70 to 6.30 | – | –
CN(C)CCOc1cccc2c1N=C(/C=C(\O)c1cccnc1)N1CCN=C21 [Example 1-86] | 186 to 187 °C | 6.30 to 7.00 | – | – | –
COc1ccc(C(=O)NC2=Nc3ccccc3C3=NCCN23)c(OC)c1.Cl [Example 2-237] | 259 °C (dec.) | – | < 5.70 | – | –
O/C(=C\C1=Nc2c(cccc2C(F)(F)F)C2=NCCN12)c1cccnc1 [Example 1-80] | 275 °C | 6.30 to 7.00 | – | – | –
Cl.O=C(NC1=Nc2cc(C(F)(F)F)ccc2C2=NCCN12)c1cncc(O)c1 [Example 2-35] | 237 °C (dec.) | – | – | > 7.00 | –
O/C(=C\C1=Nc2ccccc2C2=NCCN12)c1ccccc1 [Example 1-166] | 130 to 139 °C | 5.70 to 6.30 | – | – | –
Cc1ccc2c(c1)C1=NCCN1C(NC(=O)c1cccnc1)=N2.Cl [Example 2-91] | > 290 °C | – | – | 6.30 to 7.00 | –
O=C(NC1=Nc2cccc(Cl)c2C2=NCCN12)c1cccs1 [Example 2-358] | 233 °C | – | < 5.70 | – | –
O=C(NC1=Nc2ccccc2C2=NCCN12)C1CCN(C(=O)OCc2ccccc2)CC1 [Example 2-341] | 111 to 112 °C | – | < 5.70 | – | –
Cl.O=C(NC1=Nc2cccc(Cl)c2C2=NCCN12)c1cccnc1 [Example 2-98] | 249 °C | – | – | 6.30 to 7.00 | –
O=C(NC1=Nc2ccc(F)cc2C2=NCCN12)c1cccnc1 [Example 2-360] | 242 °C | – | 5.70 to 6.30 | – | –
Cl.O/C(=C\C1=Nc2cc(Br)ccc2C2=NCCN12)c1cccnc1 [Example 1-118] | 233 °C | 6.30 to 7.00 | – | – | –
O=C(NC1=Nc2ccccc2C2=NCCN12)c1ccccc1[N+](=O)[O-].O=C(O)C(F)(F)F [Example 2-251] | 198 to 200 °C | – | < 5.70 | – | –
CCn1nc(C)cc1C(=O)NC1=Nc2ccccc2C2=NCCN12 [Example 2-191] | 207 to 208 °C | – | – | 6.30 to 7.00 | –
COc1ccc2c(c1)N=C(NC(=O)c1ccc(NC(C)=O)nc1)N1CCN=C21.Cl [Example 2-22] | 198 to 205 °C (dec.) | – | – | 6.30 to 7.00 | –
NS(=O)(=O)c1ccc(C(=O)NC2=Nc3ccccc3C3=NCCN23)c(Cl)c1 [Example 2-249] | 240 °C (dec.) | – | < 5.70 | – | –
COc1cc2c(cc1OC)C1=NCCN1C(NC(=O)c1ccc3[nH]cnc3c1)=N2 [Example 2-60] | 246 °C | – | – | > 7.00 | –
Cl.O/C(=C\C1=Nc2ccccc2C2=NCCN12)c1ccsc1 [Example 1-149] | > 300 °C | > 7.00 | – | – | –
Cl.O=C(NC1=Nc2c(Cl)cccc2C2=NCCN12)c1ccc2[nH]cnc2c1 [Example 2-106] | > 280 °C | – | – | 6.30 to 7.00 | –
